The target of data set [1] is T1, Solute carrier family 22 member 1 (Homo sapiens, UniProt O15245).
T1 sequence (O15245 whole entry): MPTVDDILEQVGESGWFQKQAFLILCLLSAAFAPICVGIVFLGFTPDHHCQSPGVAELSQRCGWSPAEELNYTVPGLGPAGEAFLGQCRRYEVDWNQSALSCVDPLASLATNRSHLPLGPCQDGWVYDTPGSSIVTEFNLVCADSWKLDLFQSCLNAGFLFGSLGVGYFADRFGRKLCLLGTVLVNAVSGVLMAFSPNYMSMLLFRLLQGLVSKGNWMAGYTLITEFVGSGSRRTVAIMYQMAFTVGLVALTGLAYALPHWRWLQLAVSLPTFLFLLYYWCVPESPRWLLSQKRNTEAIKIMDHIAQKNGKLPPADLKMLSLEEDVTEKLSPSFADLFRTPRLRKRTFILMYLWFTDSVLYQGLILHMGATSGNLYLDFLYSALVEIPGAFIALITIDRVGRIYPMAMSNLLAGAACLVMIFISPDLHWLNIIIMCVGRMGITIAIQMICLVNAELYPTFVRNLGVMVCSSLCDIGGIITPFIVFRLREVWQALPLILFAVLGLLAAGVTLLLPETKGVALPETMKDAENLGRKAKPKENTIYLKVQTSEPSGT
Nature of the data set: (§1) TP_TRANSPORTER: uptake in Xenopus laevis oocytes. It counts as functional, cell-based. To be noted: oocyte.

For data set [2], the target named is T2, Solute carrier family 22 member 2 (Homo sapiens, UniProt O15244).
T2 sequence (O15244 whole entry): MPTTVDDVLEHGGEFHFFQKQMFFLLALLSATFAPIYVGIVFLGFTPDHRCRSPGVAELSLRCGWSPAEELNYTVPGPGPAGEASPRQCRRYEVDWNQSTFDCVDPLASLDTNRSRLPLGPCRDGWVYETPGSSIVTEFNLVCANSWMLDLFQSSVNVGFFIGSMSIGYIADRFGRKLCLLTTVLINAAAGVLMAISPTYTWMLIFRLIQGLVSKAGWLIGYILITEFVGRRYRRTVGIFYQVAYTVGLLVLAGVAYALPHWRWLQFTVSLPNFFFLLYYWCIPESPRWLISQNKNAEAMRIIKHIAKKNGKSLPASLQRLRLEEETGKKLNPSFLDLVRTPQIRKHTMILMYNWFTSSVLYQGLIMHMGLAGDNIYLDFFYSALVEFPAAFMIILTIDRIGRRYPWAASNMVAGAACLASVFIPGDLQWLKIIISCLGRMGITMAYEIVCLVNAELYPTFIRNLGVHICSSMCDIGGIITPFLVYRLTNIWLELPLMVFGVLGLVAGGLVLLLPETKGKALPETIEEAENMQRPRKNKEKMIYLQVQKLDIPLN
Nature of the data set: TP_TRANSPORTER: inhibition of TEA uptake in Xenopus laevis oocytes. It counts as functional, cell-based, Oocyte.

Substrate in data set [3]: C=C[C@H]1C[N@@]2CC[C@H]1C[C@H]2[C@H](O)c1ccnc2ccc(OC)cc12
Nature of the data set: TP_TRANSPORTER: uptake (electrogenesis) in Xenopus laevis oocytes. It is filed as functional, cell-based, Oocyte.

Substrate in data set [4]: CNC(=O)c1cccnc1
The description is as §1. It counts as functional, cell-based, Oocyte.

Substrate in data set [5]: CC[N+](CC)(CC)CC
In words: cells, lysate or membranes named.

Substrate in data set [6]: C[N+](C)(C)CCO
Nature of the data set: cells, lysate or membranes named.

Values joined by “and” are separate entries in the source; they are usually repeats but may differ in a detail not shown here. Equal values may be shown once.

Take `CC[N+](CC)(CC)CC` [TETRYLAMMONIUM]: in data set [1], the Activity result was “substrate [not saturable]”. `CC(C)C(c1ccccc1)C(O)CC[N+]1(C)CCCCC1` (centres undefined) [MEPIPERPHENIDOL BROMIDE] registered a Ki in data set [2] of 4800 nM. Still for that read-out and setting: next, `CC[n+]1c(CC2C=C(C)N=C(c3ccccc3)N2C)ccc2ccccc21` (centres undefined) [Cyanine-863]: 210 nM. In data set [2], `CNC(=O)c1cccnc1` [NICOTINYL METHYLAMIDE] registered a Ki of 266000 nM. Further, in data set [1], the Activity entry was “substrate [not saturable]”. `C[n+]1ccc(-c2ccccc2)cc1` registered an inhibition constant (Ki) in data set [2] of 2400 nM. The Activity result in data set [1] was “substrate [not saturable]”. In data set [2], `COc1cc(C(O)CNC(C)C)ccc1O` (centres undefined) [METIPRENALINE] yielded an inhibitory constant (Ki) of 570000 nM. In turn, `CCCCC[N+](CCCCC)(CCCCC)CCCCC` [TETRAPENTYLAMMONIUM] registered a Ki in data set [2] of 1500 nM. The same measure, in the same setting: next, `CCN1/C(=C/c2ccc3ccccc3[n+]2CC)C=Cc2ccccc21`: 100 nM.

B1: Solute carrier family 22 member 2 (Homo sapiens) (protein)
chain: T2 sequence (O15244 whole entry)
Turning to B1, the Km in data set [3] was 2.6 µM; in data set [4], 300 µM; in data set [5], 31 µM and 76 µM; in data set [6], 190 µM and 210 µM.

The values above are taken from ChEMBL document CHEMBL2073863, “Cloning and characterization of two human polyspecific organic cation transporters” (DNA Cell Biol, 1997).
